Data published in PubChem BioAssay (NCI).
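Step 1: Grow cells in 96-well plates. Step 2: Expose to compound for 48 hours at 5 concentrations. Step 3: Interpolate endpoints linearly; if unreached, use highest concentration. Abbreviation: GI50, concentration required for 50% inhibition of growth. TGI is the concentration that stops growth completely.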

What was measured:
Assay in all cases: NCI tumour cell line growth inhibition, 48 h
[1] = test system: 786-0 renal
[2] = test system: A498 renal
[3] = test system: A549 NSCLC
[4] = test system: ACHN renal
[5] = test system: BT-549 breast
[6] = test system: CAKI-1 renal
[7] = test system: CCRF-CEM leukemia
[8] = test system: COLO 205 colon
[9] = test system: DU-145 prostate
[10] = test system: EKVX NSCLC
[11] = test system: HCC-2998 colon
[12] = test system: HCT-116 colon
[13] = test system: HCT-15 colon
[14] = test system: HL-60(TB) leukemia
[15] = test system: HOP-62 NSCLC
[16] = test system: HOP-92 NSCLC
[17] = test system: HS 578T breast
[18] = test system: HT29 colon
[19] = test system: IGROV1 ovarian
[20] = test system: K-562 leukemia
[21] = test system: KM12 colon
[22] = test system: LOX IMVI melanoma
[23] = test system: M14 melanoma
[24] = test system: MALME-3M melanoma
[25] = test system: MCF7 breast
[26] = test system: MDA-MB-231 breast
[27] = test system: MDA-MB-468 breast
[28] = test system: MOLT-4 leukemia
[29] = test system: NCI-H226 lung
[30] = test system: NCI-H23 lung
[31] = test system: NCI-H460 lung
[32] = test system: NCI-H522 lung
[33] = test system: OVCAR-3 ovarian
[34] = test system: OVCAR-4 ovarian
[35] = test system: OVCAR-5 ovarian
[36] = test system: OVCAR-8 ovarian
[37] = test system: PC-3 prostate
[38] = test system: RPMI-8226 leukemia
[39] = test system: RXF 393 renal
[40] = test system: SF-268 CNS
[41] = test system: SF-295 CNS
[42] = test system: SF-539 CNS
[43] = test system: SK-MEL-28 melanoma
[44] = test system: SK-MEL-5 melanoma
[45] = test system: SK-OV-3 ovarian
[46] = test system: SN12C renal
[47] = test system: SNB-19 CNS
[48] = test system: SNB-75 CNS
[49] = test system: SR leukemia
[50] = test system: SW-620 colon
[51] = test system: T-47D breast
[52] = test system: TK-10 renal
[53] = test system: U251 CNS
[54] = test system: UACC-257 melanoma
[55] = test system: UACC-62 melanoma
[56] = test system: UO-31 renal

## CN(C)c1ccnc(CNCCSC2(c3ccc(C(F)(F)F)cc3)c3ccccc3CCc3ccccc32)c1
[1]
  GI50: 1.9 µM
  TGI: 11.2 µM
[2]
  GI50: 14 µM
  TGI: 32.1 µM
[3]
  GI50: 1.3 µM
  TGI: 15.1 µM
[4]
  GI50: 0.909 µM
  TGI: 15 µM
[5]
  GI50: 2.76 µM
  TGI: 7.36 µM
[6]
  GI50: 2.11 µM
  TGI: 14.8 µM
[7]
  GI50: 0.37 µM
  TGI: 6.35 µM
[8]
  GI50: 1.02 µM
  TGI: 2.42 µM
[9]
  GI50: 3.08 µM
  TGI: 11.3 µM
[10]
  GI50: 0.653 µM
  TGI: 12.7 µM
[11]
  GI50: 0.537 µM
  TGI: 1.83 µM
[12]
  GI50: 0.365 µM
  TGI: 1.78 µM
[13]
  GI50: 0.403 µM
  TGI: 11 µM
[14]
  GI50: 0.394 µM
  TGI: 1.96 µM
[15]
  GI50: 2.2 µM
  TGI: 13.6 µM
[16]
  GI50: 2.12 µM
  TGI: 11.7 µM
[17]
  GI50: 1.62 µM
  TGI: 7.58 µM
[18]
  GI50: 1.68 µM
  TGI: 4.11 µM
[19]
  GI50: 1.4 µM
  TGI: 13.6 µM
[20]
  GI50: 0.336 µM
  TGI: 1.86 µM
[21]
  GI50: 1.26 µM
  TGI: 5.16 µM
[22]
  GI50: 1.14 µM
  TGI: 2.43 µM
[23]
  GI50: 0.465 µM
  TGI: 2.97 µM
[24]
  GI50: 1.44 µM
  TGI: 3.09 µM
[25]
  GI50: 0.356 µM
  TGI: 4.32 µM
[26]
  GI50: 0.479 µM
  TGI: 2.75 µM
[27]
  GI50: 0.293 µM
  TGI: 0.906 µM
[28]
  GI50: 1.6 µM
  TGI: 4.45 µM
[29]
  GI50: 2.38 µM
  TGI: 13.9 µM
[30]
  GI50: 2.72 µM
  TGI: 11.8 µM
[31]
  GI50: 0.603 µM
  TGI: 2.54 µM
[32]
  GI50: 0.473 µM
  TGI: 4.26 µM
[33]
  GI50: 1.31 µM
  TGI: 10.5 µM
[34]
  GI50: 4.05 µM
  TGI: 17.3 µM
[35]
  GI50: 2.04 µM
  TGI: 9.12 µM
[36]
  GI50: 0.739 µM
  TGI: 10.8 µM
[37]
  GI50: 1.05 µM
  TGI: 12 µM
[38]
  GI50: 1.18 µM
  TGI: 6.42 µM
[39]
  GI50: 2.17 µM
  TGI: 9.12 µM
[40]
  GI50: 3.24 µM
  TGI: 17.7 µM
[41]
  GI50: 0.467 µM
  TGI: 2.34 µM
[42]
  GI50: 0.675 µM
  TGI: 2.47 µM
[43]
  GI50: 3.76 µM
  TGI: 15.9 µM
[44]
  GI50: 1.15 µM
  TGI: 2.46 µM
[45]
  GI50: 3.32 µM
  TGI: 13.4 µM
[46]
  GI50: 0.59 µM
  TGI: 8.25 µM
[47]
  GI50: 1.24 µM
  TGI: 14.3 µM
[48]
  GI50: 1.84 µM
  TGI: 8.92 µM
[49]
  GI50: 0.345 µM
  TGI: 1.62 µM
[50]
  GI50: 0.446 µM
  TGI: 12.5 µM
[51]
  GI50: 3.42 µM
  TGI: 15.6 µM
[52]
  GI50: 3.91 µM
  TGI: 16.1 µM
[53]
  GI50: 0.439 µM
  TGI: 3.56 µM
[54]
  GI50: 3.67 µM
  TGI: 15.9 µM
[55]
  GI50: 3.24 µM
  TGI: 14.5 µM
[56]
  GI50: 2.46 µM
  TGI: 16 µM
